Reference: patent US10617695B2, “Ophthalmic compositions containing alcaftadine” (Vistakon Pharmaceuticals, LLC, priority 2006, dated 2020)
“Also recorded” adds a separate entry of the source.

Key:
[1] = system: guinea pigs systemically sensitized to rabbit skin squames and topically challenged with rabbit allergens; experiment: Anti-allergic activity against acute-phase allergic conjunctivitis (edema and erythema) in sensitized guinea pigs; assay type: in vivo, guinea pig
Protocol: The effect of alcaftadine against acute-phase reactions of allergic conjunctivitis (edema and erythema) was compared to the effect of other known anti-allergens in guinea pigs that were systemically sensitized to rabbit skin squames and topically challenged 17 days later with rabbit allergens.
Anesthetized male albino guinea pigs (Dunkin-Hartley) weighing about 230 to 250 g were injected intramuscularly at the left quadriceps with 50 μl of purified rabbit allergens. The rabbit allergens consisted of Al(OH)3-adsorbed rabbit squames (Halab, Brussels, Belgium), which had been homogenized and washed clean of preservative (0.5% (V/V) phenol) with sterile physiologic saline.
Alcaftadine was […] administered to each eye in dosages ranging from 0.005 mg/kg to 1.0 mg/kg at 24 hours and 1 hour before challenge. Other test compounds included oxatomide, ketotifen, astemizole, cetirizine, loratadine and terfenadine, administered at dosages of 0.1 mg/kg and 1.0 mg/kg.
At day 17 post sensitization the left eye was challenged by instilling 25 μl of 100% normal rabbit serum. At the same time as the allergen challenge, the right eye was instilled with 25 μl of 1.5 mg/ml histamine dihydrochloride (98%, Sigma) dissolved in deionised, Millipore-filtered water.
Thirty minutes after challenge, edema and erythema were assessed in the tarsal and bulbar conjunctiva of both eyes and scored as absent (0), weak (1), moderate (2), severe (3), or very severe (4) by a trained technician.

[2] = system: SWR/J mice sensitized with short ragweed allergen; experiment: Topical alcaftadine in murine model of active anaphylaxis (allergic conjunctivitis, short ragweed challenge); assay type: in vivo, mouse; settings: alcaftadine 0.0625% ophthalmic solution, 15 minutes after allergen challenge
Protocol: Male SWR/J mice (The Jackson Laboratory, Bar Harbor, Me.), aged 5-7 weeks and weighing between 12.55 and 17.73 grams, were sensitized with a 100 μl dose of a suspension of 50 μg short ragweed allergen (Greer Labs, Inc., Lenoir, N.C.) and 1 mg of aluminum hydroxide (Fisher Scientific, Pittsburgh, Pa.) by intraperitoneal injection at two weeks and prior to treatment and challenge. […] The mice were then dosed topically in the eye with an alcaftadine 0.0625% ophthalmic solution, positive control (ophthalmic solution comprising combination of ketotifen 0.05% and pheniramine 0.5%), or placebo prior to an ocular challenge with 1.5 mg short ragweed allergen in phosphate buffered saline. Fifteen (15) minutes after allergen challenge, mice were evaluated for clinical signs of allergic conjunctivitis by scoring for conjunctival redness, chemosis, tearing, and lid edema. Severity of clinical signs was scored by a trained technician using a standardized 0-2 scale.

[3] = system: adult volunteers with a history of allergic conjunctivitis; experiment: Conjunctival Allergen Challenge (CAC) in adult volunteers; assay type: in vivo, human
Protocol: The anti-allergic effect of a single dose of each of the three concentrations of alcaftadine ophthalmic solutions from Example 1 was assessed in a Conjunctival Allergen Challenge (“CAC”) performed on adult volunteers with a history of allergic conjunctivitis. Subjects were selected after two visits to confirm reactivity to the allergen challenge. […] Subjects were then challenged with allergen by instilling reconstituted commercially available allergen into each eye on two separate visits 16 hours and 15 minutes after the bilateral instillation of alcaftadine, PATANOL® olopatadine hydrochloride ophthalmic solution 0.1% (Alcon, Inc., Fort Worth, Tex.) or vehicle, and the clinical response assessed.
Assessments were made at 7, 15 and 20 minutes post challenge based on investigator evaluations of redness using a 5 point scale.
Nasal symptoms of sneezing, rhinorrhea, pruritis (nasal and ear/palate) and nasal congestion were assessed by subjects using standardized scales.

[4] = biological target: T1, human histamine H4 receptor (Homo sapiens, UniProt Q9H3N8); experiment: [3H]histamine competition binding to membranes of SK-N-MC cells transfected with human H4 receptor
T1 construct: express a reporter gene construct and the human H4 receptor full-coding region; expressed in transfected cells; host or cells: SK-N-MC cells with a CRE-beta-galactosidase reporter

[5] = system: murine model of allergic conjunctivitis; experiment: Vascular leak (Evans Blue Dye Extravasation) in murine model of allergic conjunctivitis, early phase; assay type: in vivo, mice; settings: alcaftadine 2.5 mg/ml, 5 μL topical at 1 and 2 hours pre-challenge; p<0.05
Protocol: Alcaftadine ophthalmic solution was evaluated to determine if topical treatment could reduce early phase and late phase allergic inflammation in a murine model of allergic conjunctivitis. Evans Blue Dye Leakage was used to assess the impact on vascular permeability during the early phase inflammatory response Conjunctiva was taken at 24 hours, stained, and assessed for presence of neutrophil and eosinophil infiltration to evaluate late phase anti-inflammatory activity.
All mice were sensitized with short ragweed (SRW) in aluminum hydroxide via intraperitoneal administration (Day 0, 7, and 14) and eye drop instillation (Day 8 and 15). On Day 20, mice were again sensitized with eye drops of SRW.
On Day 27, two topical administrations of the clinical dose of alcaftadine 2.5 mg/ml or vehicle were instilled at 1 and 2 hours pre-challenge. Alcaftadine and vehicle were administered topically at a 5 μL saturating dose as treatment arms based on a randomization code. […]
Vascular leak was determined by means of Evans Blue Dye Extravasation following allergen challenge for N=6 animals except the alcaftadine treatment arm, where N=4 animals were sacrificed and tested (two animals died during the procedure). […] The numbers of eosinophils and neutrophils were determined both by light microscopy of Giemsa or H&E stained sections or by immunohistochemistry using cell specific monoclonal antibodies. […]

[6] = administered 16 hours prior to challenge

T1 sequence (Q9H3N8 whole entry): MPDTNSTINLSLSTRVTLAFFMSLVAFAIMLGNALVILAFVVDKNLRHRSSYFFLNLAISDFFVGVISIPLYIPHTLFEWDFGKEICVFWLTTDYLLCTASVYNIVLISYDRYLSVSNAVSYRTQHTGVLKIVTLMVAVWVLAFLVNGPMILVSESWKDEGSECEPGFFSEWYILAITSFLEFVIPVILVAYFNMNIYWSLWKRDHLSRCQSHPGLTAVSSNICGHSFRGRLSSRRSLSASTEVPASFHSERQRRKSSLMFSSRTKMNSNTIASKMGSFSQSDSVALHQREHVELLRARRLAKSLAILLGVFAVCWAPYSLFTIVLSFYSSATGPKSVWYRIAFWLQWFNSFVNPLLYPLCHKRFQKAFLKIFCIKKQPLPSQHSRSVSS

## CN1CCC(=C2c3ccccc3CCn3c(C=O)cnc32)CC1 [Alcaftadine, 6,11-dihydro-11-(1-methyl-4-piperidinylidene)-5H-imidazo[2,1-b][3]benzazepine-3-carboxaldehyde]
[1]; dosed 24 hours and 1 hour before challenge, edema and erythema scored 30 minutes after challenge
  dose from which acute allergic symptoms were significantly alleviated: 0.1 mg/kg
[1]; on an equivalent mg/kg basis
  potency compared with astemizole, cetirizine and loratadine: significantly more potent
  potency compared with oxatomide, ketotifen and terfenadine: more potent
[2]
  preventing tearing: as effective as the positive control and more effective than placebo
[2]; positive control ketotifen 0.05% and pheniramine 0.5%
  preventing itching, redness, chemosis and lid edema: more effective than the positive control
[3]; 0.25% treatment group, challenged 15 minutes post-treatment
  itching scores versus vehicle or PATANOL: lower itching scores than vehicle or PATANOL®
[3]; 0.25% treatment group, challenged at 15 minutes post-treatment
  conjunctival redness scores versus vehicle or PATANOL: lower scores than vehicle or PATANOL®
[3]; [6]
  inhibition of conjunctival redness: dose-related inhibition of conjunctival redness
  inhibition of ocular itching: dose-related inhibition of ocular itching
[3]; all concentrations, 16 hours prior to challenge, 3, 5 and 7 minutes post-challenge, 5 point scale
  mean itching scores versus vehicle or PATANOL: lower mean itching scores
[3]; all concentrations, 16 hours prior to challenge, 7, 15 and 20 minutes post challenge, 5 point scale
  mean conjunctival redness scores: various degrees of reduction in mean conjunctival redness scores at most assessment times
[3]; all concentrations, various time points
  relief of nasal congestion and rhinorrhea: some degree of relief
[3]; baseline sneezing incidence likely too low
  effect on sneezing: No effect on sneezing was demonstrated
[3]; challenged 15 minutes post-treatment
  inhibition of ocular itching: dose-related inhibition of ocular itching as compared to placebo
[3]; majority of timepoints at both onset and duration visits
  reduction of rhinorrhea, nasal congestion, and pruritis of the palate/ear: significant reduction
[4]; average of two runs, 10 nM [3H]histamine, Cheng and Prusoff
  Ki: 2900 nM
[4]; compared with pA2
  pKi: 5.5
[5]
  vascular leak compared to vehicle: successfully preventing vascular leakage; also recorded: did significantly inhibit vascular leak
